Where a SMILES comes first, the peptide text is derived from it. The star is where a group is joined. X1 = O=C(O)c1ccc2c(c1)nc(OCCCCCCCCC(=O)*)c1ccncc12
Tests used:
[1] = target: Rho-associated protein kinase 2 (Homo sapiens) (UniProt O75116); assay: Inhibition of human ROCK2 assessed as residual activity at 1 uM in presence of [33P]ATP by filter binding assay relative to control
[2] = target: Serine/threonine-protein kinase 26 (Homo sapiens) (UniProt Q9P289); assay: Inhibition of human MST4 assessed as residual activity at 1 uM in presence of [33P]ATP by filter binding assay relative to control
[3] = target: Mitogen-activated protein kinase 9 (Homo sapiens) (UniProt P45984); assay: Inhibition of human JNK2 assessed as residual activity at 1 uM in presence of [33P]ATP by filter binding assay relative to control
[4] = target: Serine/threonine-protein kinase pim-3 (Homo sapiens) (UniProt Q86V86); assay: Inhibition of human PIM3 assessed as residual activity at 1 uM in presence of [33P]ATP by filter binding assay relative to control
[5] = target: Mitogen-activated protein kinase 15 (Homo sapiens) (UniProt Q8TD08); assay: Inhibition of human ERK8 assessed as residual activity at 1 uM in presence of 33P-ATP by filter-binding assay relative to control
[6] = target: Serine/threonine-protein kinase PAK 4 (Homo sapiens) (UniProt O96013); assay: Inhibition of human PAK4 assessed as residual activity at 1 uM in presence of [33P]ATP by filter binding assay relative to control
[7] = target: Protein kinase C alpha type (Homo sapiens) (UniProt P17252); assay: Inhibition of human PKCa assessed as residual activity at 1 uM in presence of [33P]ATP by filter binding assay relative to control
[8] = target: CDK2/Cyclin A2 (Homo sapiens) (UniProt P24941+P20248); assay: Inhibition of human CDK2/Cyclin A assessed as residual activity at 1 uM in presence of [33P]ATP by filter binding assay relative to control; format: protein-complex assay
[9] = target: Mitogen-activated protein kinase kinase kinase 5 (Homo sapiens) (UniProt Q99683); assay: Inhibition of human ASK1 assessed as residual activity at 1 uM in presence of [33P]ATP by filter binding assay relative to control
[10] = target: Myosin light chain kinase, smooth muscle (Homo sapiens) (UniProt Q15746); assay: Inhibition of human SmMLCK assessed as residual activity at 1 uM in presence of [33P]ATP by filter binding assay relative to control
[11] = target: Eukaryotic elongation factor 2 kinase (Homo sapiens) (UniProt O00418); assay: Inhibition of human EF2K assessed as residual activity at 1 uM in presence of [33P]ATP by filter binding assay relative to control
[12] = target: CDK9/cyclin T1 (Homo sapiens) (UniProt O60563+P50750); assay: Inhibition of human CDK9-CyclinT1 assessed as residual activity at 1 uM in presence of [33P]ATP by filter binding assay relative to control; format: protein-complex assay
[13] = target: Dual specificity testis-specific protein kinase 1 (Homo sapiens) (UniProt Q15569); assay: Inhibition of human TESK1 assessed as residual activity at 1 uM in presence of [33P]ATP by filter binding assay relative to control
[14] = target: Mitogen-activated protein kinase kinase kinase kinase 3 (Homo sapiens) (UniProt Q8IVH8); assay: Inhibition of human MAP4K3 assessed as residual activity at 1 uM in presence of [33P]ATP by filter binding assay relative to control
Mitogen-activated protein kinase kinase kinase kinase 3 (Homo sapiens), sequence (Q8IVH8 whole entry): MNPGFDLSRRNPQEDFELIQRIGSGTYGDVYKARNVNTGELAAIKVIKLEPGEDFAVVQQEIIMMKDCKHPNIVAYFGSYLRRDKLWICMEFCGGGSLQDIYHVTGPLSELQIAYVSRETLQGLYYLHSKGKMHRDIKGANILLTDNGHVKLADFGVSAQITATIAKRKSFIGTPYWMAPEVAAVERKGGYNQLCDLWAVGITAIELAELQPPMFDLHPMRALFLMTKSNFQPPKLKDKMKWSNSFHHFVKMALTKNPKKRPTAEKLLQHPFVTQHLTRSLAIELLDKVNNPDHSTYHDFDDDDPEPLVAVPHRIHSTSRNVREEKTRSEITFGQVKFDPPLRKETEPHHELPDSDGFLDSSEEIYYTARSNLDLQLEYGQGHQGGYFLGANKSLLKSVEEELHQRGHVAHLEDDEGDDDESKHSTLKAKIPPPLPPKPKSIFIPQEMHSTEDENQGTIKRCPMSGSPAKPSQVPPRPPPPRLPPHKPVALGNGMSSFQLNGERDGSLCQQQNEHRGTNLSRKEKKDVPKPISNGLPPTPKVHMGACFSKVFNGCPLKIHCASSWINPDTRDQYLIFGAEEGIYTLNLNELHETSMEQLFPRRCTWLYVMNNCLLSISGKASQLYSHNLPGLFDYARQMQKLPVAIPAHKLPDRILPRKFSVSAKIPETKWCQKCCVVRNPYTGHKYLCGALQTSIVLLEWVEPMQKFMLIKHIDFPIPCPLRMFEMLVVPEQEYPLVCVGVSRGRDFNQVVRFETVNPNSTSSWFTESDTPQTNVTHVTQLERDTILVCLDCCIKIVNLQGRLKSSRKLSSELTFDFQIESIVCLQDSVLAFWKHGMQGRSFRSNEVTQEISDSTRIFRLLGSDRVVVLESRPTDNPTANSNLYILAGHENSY

[15] = target: Mitogen-activated protein kinase kinase kinase kinase 5 (Homo sapiens) (UniProt Q9Y4K4); assay: Inhibition of human MAP4K5 assessed as residual activity at 1 uM in presence of [33P]ATP by filter binding assay relative to control
Mitogen-activated protein kinase kinase kinase kinase 5 (Homo sapiens), sequence (Q9Y4K4 whole entry, looked up): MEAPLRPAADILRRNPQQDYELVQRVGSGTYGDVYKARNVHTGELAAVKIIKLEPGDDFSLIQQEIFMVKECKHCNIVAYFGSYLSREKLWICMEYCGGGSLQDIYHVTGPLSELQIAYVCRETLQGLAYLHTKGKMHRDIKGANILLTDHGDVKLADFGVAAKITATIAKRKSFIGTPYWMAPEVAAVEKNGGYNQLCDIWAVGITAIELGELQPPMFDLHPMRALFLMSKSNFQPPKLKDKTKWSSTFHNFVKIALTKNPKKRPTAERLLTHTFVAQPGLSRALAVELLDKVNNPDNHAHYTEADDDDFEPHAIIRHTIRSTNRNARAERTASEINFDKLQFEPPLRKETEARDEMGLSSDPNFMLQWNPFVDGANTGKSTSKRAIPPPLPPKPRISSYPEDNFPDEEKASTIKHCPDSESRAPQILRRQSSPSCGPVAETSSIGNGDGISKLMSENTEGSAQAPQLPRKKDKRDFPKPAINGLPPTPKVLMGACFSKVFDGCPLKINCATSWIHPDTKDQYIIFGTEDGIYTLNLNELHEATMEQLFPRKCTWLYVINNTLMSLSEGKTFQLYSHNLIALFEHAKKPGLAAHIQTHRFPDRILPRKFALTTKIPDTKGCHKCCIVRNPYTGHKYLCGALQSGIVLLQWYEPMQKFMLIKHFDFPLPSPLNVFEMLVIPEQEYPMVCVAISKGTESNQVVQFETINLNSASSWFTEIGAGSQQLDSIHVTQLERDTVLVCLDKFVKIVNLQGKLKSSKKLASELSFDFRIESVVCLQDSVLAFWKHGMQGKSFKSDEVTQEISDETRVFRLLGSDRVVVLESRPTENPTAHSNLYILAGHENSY

[16] = target: NUAK family SNF1-like kinase 1 (Homo sapiens) (UniProt O60285); assay: Inhibition of human NUAK1 assessed as residual activity at 1 uM in presence of [33P]ATP by filter binding assay relative to control
[17] = target: Dual specificity mitogen-activated protein kinase kinase 1 (Homo sapiens) (UniProt Q02750); assay: Inhibition of human MKK1 assessed as residual activity at 1 uM in presence of [33P]ATP by filter binding assay relative to control
Dual specificity mitogen-activated protein kinase kinase 1 (Homo sapiens), sequence (Q02750 whole entry): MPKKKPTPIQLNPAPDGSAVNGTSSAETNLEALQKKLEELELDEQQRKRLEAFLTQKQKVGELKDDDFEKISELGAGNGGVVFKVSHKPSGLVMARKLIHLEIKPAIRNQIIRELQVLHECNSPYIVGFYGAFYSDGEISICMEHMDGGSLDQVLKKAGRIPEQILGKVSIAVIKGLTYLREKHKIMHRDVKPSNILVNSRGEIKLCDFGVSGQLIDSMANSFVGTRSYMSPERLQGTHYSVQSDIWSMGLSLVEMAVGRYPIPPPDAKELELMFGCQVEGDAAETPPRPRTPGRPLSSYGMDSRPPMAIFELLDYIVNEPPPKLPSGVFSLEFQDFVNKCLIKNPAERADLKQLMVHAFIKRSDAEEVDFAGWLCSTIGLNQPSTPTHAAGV

[18] = target: Calcium/calmodulin-dependent protein kinase type 1 (Homo sapiens) (UniProt Q14012); assay: Inhibition of human CAMK1 assessed as residual activity at 1 uM in presence of [33P]ATP by filter binding assay relative to control
Homo sapiens = species on record: Homo sapiens; assay: Inhibition of human CK2 assessed as residual activity at 1 uM in presence of 33P-ATP by filter-binding assay relative to control
[19] = target: Mitogen-activated protein kinase kinase kinase 11 (Homo sapiens) (UniProt Q16584); assay: Inhibition of human MLK3 assessed as residual activity at 1 uM in presence of 33P-ATP by filter-binding assay relative to control
[20] = target: MAP kinase-activated protein kinase 5 (Homo sapiens) (UniProt Q8IW41); assay: Inhibition of human PRAK assessed as residual activity at 1 uM in presence of [33P]ATP by filter binding assay relative to control
MAP kinase-activated protein kinase 5 (Homo sapiens), sequence (Q8IW41 whole entry): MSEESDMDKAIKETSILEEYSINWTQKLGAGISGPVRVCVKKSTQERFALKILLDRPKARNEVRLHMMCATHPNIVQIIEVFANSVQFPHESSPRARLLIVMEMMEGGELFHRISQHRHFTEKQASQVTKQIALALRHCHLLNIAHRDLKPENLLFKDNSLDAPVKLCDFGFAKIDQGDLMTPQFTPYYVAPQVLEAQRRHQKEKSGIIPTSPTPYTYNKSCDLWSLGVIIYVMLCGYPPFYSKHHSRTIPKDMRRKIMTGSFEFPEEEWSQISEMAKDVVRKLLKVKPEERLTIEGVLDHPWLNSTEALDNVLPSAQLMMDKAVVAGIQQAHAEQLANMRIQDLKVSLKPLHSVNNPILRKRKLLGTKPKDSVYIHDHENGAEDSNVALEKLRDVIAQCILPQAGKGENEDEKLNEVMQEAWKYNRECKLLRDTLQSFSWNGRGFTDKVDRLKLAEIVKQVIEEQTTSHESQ

[21] = target: Serine/threonine-protein kinase PAK 5 (Homo sapiens) (UniProt Q9P286); assay: Inhibition of human PAK5 assessed as residual activity at 1 uM in presence of [33P]ATP by filter binding assay relative to control
[22] = target: Proto-oncogene tyrosine-protein kinase Src (Homo sapiens) (UniProt P12931); assay: Inhibition of human Src assessed as residual activity at 1 uM in presence of [33P]ATP by filter binding assay relative to control
[23] = target: Tyrosine-protein kinase Yes (Homo sapiens) (UniProt P07947); assay: Inhibition of human YES1 assessed as residual activity at 1 uM in presence of [33P]ATP by filter binding assay relative to control
Tyrosine-protein kinase Yes (Homo sapiens), sequence (P07947 2-543 limits assumed): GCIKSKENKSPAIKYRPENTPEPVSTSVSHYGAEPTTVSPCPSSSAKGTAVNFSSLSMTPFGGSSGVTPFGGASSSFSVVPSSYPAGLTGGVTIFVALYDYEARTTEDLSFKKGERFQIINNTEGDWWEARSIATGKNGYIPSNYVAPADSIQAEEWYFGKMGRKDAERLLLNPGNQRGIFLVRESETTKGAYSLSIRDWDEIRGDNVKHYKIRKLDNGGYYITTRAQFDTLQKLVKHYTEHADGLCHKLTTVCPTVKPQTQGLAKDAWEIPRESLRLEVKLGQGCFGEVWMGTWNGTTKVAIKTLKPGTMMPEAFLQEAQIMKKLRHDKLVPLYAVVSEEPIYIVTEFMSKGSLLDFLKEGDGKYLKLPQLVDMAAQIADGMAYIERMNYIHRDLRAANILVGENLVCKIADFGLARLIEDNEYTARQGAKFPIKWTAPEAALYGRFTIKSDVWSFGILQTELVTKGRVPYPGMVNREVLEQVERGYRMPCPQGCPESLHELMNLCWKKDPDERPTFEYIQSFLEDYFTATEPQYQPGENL

[24] = target: Calcium/calmodulin-dependent protein kinase kinase 2 (Homo sapiens) (UniProt Q96RR4); assay: Inhibition of human CAMKKb assessed as residual activity at 1 uM in presence of [33P]ATP by filter binding assay relative to control
[25] = target: Serine/threonine-protein kinase D1 (Homo sapiens) (UniProt Q15139); assay: Inhibition of human PKD1 assessed as residual activity at 1 uM in presence of [33P]ATP by filter binding assay relative to control
Serine/threonine-protein kinase D1 (Homo sapiens), sequence (Q15139 whole entry): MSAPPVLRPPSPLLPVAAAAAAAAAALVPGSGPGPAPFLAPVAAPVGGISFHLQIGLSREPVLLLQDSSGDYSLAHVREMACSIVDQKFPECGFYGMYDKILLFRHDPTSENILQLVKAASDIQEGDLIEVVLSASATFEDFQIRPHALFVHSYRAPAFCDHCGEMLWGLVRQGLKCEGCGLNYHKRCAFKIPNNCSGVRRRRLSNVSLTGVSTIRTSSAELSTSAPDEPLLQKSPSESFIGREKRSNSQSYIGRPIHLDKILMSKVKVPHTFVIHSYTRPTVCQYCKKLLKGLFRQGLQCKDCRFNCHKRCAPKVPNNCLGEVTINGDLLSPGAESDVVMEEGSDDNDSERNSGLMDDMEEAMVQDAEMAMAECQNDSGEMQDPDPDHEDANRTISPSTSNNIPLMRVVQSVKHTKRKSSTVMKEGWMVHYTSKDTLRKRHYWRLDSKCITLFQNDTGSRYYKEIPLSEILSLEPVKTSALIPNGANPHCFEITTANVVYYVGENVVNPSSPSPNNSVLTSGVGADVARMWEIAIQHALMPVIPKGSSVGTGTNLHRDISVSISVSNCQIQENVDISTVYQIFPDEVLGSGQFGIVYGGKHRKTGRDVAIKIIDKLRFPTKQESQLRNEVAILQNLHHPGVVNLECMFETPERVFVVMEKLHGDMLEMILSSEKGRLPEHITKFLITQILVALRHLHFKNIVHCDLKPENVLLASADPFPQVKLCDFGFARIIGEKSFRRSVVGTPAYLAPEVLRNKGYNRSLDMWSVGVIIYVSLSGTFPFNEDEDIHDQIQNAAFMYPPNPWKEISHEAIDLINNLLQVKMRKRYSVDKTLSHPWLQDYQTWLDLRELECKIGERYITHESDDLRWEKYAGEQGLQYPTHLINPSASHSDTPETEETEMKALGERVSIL

[26] = target: Insulin receptor (Homo sapiens) (UniProt P06213); assay: Inhibition of human IR assessed as residual activity at 1 uM in presence of [33P]ATP by filter binding assay relative to control
[27] = target: Discoidin domain-containing receptor 2 (Homo sapiens) (UniProt Q16832); assay: Inhibition of human DDR2 assessed as residual activity at 1 uM in presence of [33P]ATP by filter binding assay relative to control
[28] = target: Serine/threonine-protein kinase STK11 (Homo sapiens) (UniProt Q15831); assay: Inhibition of human LKB1 assessed as residual activity at 1 uM in presence of [33P]ATP by filter binding assay relative to control

Activity [1]: 90%
Activity [2]: 67%
Activity [3]: 79%
Activity [4]: 84%
Activity [6]: 107%
Activity [7]: 93%
Activity [8]: 82%
Activity [9]: 118%
Activity [10]: 98%
Activity [11]: 100%
Activity [12]: 108%
Activity [13]: 94%
Activity [14]: 95%
Activity [15]: 87%
Activity [16]: 75%
Activity [17]: 86%
Activity [18]: 89%
Activity (Homo sapiens): 1%
Activity [19]: 22%
Activity [20]: 92%
Activity [21]: 97%
Activity [22]: 67%
Activity [23]: 91%
Activity [24]: 81%
Activity [25]: 79%
Activity [26]: 85%
Activity [27]: 117%
Activity [28]: 83%
SMILES: NCCCC[C@H](NC(=O)[C@H](CC(=O)O)NC(=O)[C@H](CC(=O)O)NC(=O)[C@H](CC(=O)O)NC(=O)[C@H](CC(=O)O)NC(=O)[C@H](CC(=O)O)NC(=O)[C@H](CC(=O)O)NC(=O)CCCCCCCCOc1nc2cc(C(=O)O)ccc2c2cnccc12)C(=O)O (X1-DDDDDDK-OH)
Activity [5]: 10%

Source: ChEMBL document CHEMBL4049403, “Oligo-aspartic acid conjugates with benzo[c][2,6]naphthyridine-8-carboxylic acid scaffold as picomolar inhibitors of CK2” (Bioorg Med Chem, 2017)
